The CheMixHub viscosity set

Assay: xn = mol fraction of the nth substance listed

O=C1CCCCC1 + CCCCCO
303.15 K, 101 kPa
Conditions | viscosity [mPa·s]
x1 = 0.1012 | 2.388
x1 = 0.2586 | 1.983
x1 = 0.4201 | 1.737
x1 = 0.5809 | 1.622
x1 = 0.7407 | 1.565

CC=Cc1ccc2c(c1)OCO2 + CCCCCOC(C)=O
Conditions | viscosity [mPa·s]
298.15 K, 101 kPa, x1 = 0.137 | 0.958

CC(=O)CC(C)C + CCCCN(CCCC)CCCC
viscosity [mPa·s], 101 kPa
Conditions | 298.15 K | 303.15 K | 308.15 K
x2 = 0.0501 | 0.564 | 0.53 | 0.499
x2 = 0.1 | 0.593 | 0.556 | 0.524
x2 = 0.1499 | 0.622 | 0.582 | 0.549
x2 = 0.2004 | 0.653 | 0.609 | 0.576
x2 = 0.25 | 0.685 | 0.638 | 0.601
x2 = 0.3017 | 0.719 | 0.668 | 0.628
x2 = 0.4004 | 0.786 | 0.727 | 0.681
x2 = 0.4999 | 0.856 | 0.788 | 0.737
x2 = 0.6004 | 0.928 | 0.855 | 0.796
x2 = 0.6962 | 1.002 | 0.922 | 0.855
x2 = 0.8004 | 1.087 | 0.998 | 0.922
x2 = 0.8496 | 1.129 | 1.033 | 0.954
x2 = 0.8997 | 1.171 | 1.07 | 0.988
x2 = 0.9499 | 1.22 | 1.114 | 1.023

CC(=O)CC(C)C + CCCCO
101 kPa
Conditions | viscosity [mPa·s]
303.15 K, x2 = 0.1311 | 0.542
303.15 K, x2 = 0.2531 | 0.592
303.15 K, x2 = 0.367 | 0.653
303.15 K, x2 = 0.4745 | 0.748
303.15 K, x2 = 0.5795 | 0.862
303.15 K, x2 = 0.6729 | 0.997
303.15 K, x2 = 0.7627 | 1.185
303.15 K, x2 = 0.8465 | 1.42
303.15 K, x2 = 0.9254 | 1.728
313.15 K, x2 = 0.1311 | 0.482
313.15 K, x2 = 0.2533 | 0.526
313.15 K, x2 = 0.3677 | 0.578
313.15 K, x2 = 0.4745 | 0.647
313.15 K, x2 = 0.5754 | 0.733
313.15 K, x2 = 0.6704 | 0.844
313.15 K, x2 = 0.7604 | 0.98
313.15 K, x2 = 0.9236 | 1.43
323.15 K, x2 = 0.1319 | 0.428
323.15 K, x2 = 0.2542 | 0.464
323.15 K, x2 = 0.3688 | 0.507
323.15 K, x2 = 0.4759 | 0.565
323.15 K, x2 = 0.5759 | 0.621
323.15 K, x2 = 0.6721 | 0.707
323.15 K, x2 = 0.7597 | 0.801
323.15 K, x2 = 0.8452 | 0.937
323.15 K, x2 = 0.9386 | 1.136

CCCCCCO + CCCCO
Conditions | viscosity [mPa·s]
294.55 K, 100 kPa, x2 = 0.31 | 3.994

CCOCC + CCCCO
303.16 K, 101 kPa
Conditions | viscosity [mPa·s]
x1 = 0.09 | 1.958
x1 = 0.17 | 1.512
x1 = 0.27 | 0.9582
x1 = 0.4 | 0.8084
x1 = 0.51 | 0.6978
x1 = 0.6 | 0.5936
x1 = 0.67 | 0.4746
x1 = 0.74 | 0.3798
x1 = 0.81 | 0.291

O=C1CCCCC1 + CCCCO
101 kPa
Conditions | viscosity [mPa·s]
298.15 K, x1 = 0.0997 | 2.13
298.15 K, x1 = 0.2002 | 1.87
298.15 K, x1 = 0.3022 | 1.73
298.15 K, x1 = 0.3878 | 1.66
298.15 K, x1 = 0.5036 | 1.63
298.15 K, x1 = 0.6016 | 1.64
298.15 K, x1 = 0.6966 | 1.67
298.15 K, x1 = 0.7992 | 1.74
298.15 K, x1 = 0.8984 | 1.82
303.15 K, x1 = 0.1001 | 1.855
303.15 K, x1 = 0.2591 | 1.662
303.15 K, x1 = 0.4202 | 1.556
303.15 K, x1 = 0.5804 | 1.517
303.15 K, x1 = 0.7265 | 1.534
303.15 K, x1 = 0.8935 | 1.622

CC(=O)CC(C)C + CCCCOC(C)=O
298.15 K, 101.33 kPa
Conditions | viscosity [mPa·s]
x1 = 0.128 | 0.66
x1 = 0.2471 | 0.643
x1 = 0.3594 | 0.628
x1 = 0.4715 | 0.612
x1 = 0.5881 | 0.595
x1 = 0.6863 | 0.583
x1 = 0.7901 | 0.57
x1 = 0.8902 | 0.556

O=C1CCCCC1 + CCCCOC(C)=O
viscosity [mPa·s], 101 kPa
Conditions | 298.15 K | 303.15 K | 308.15 K | 313.15 K
x1 = 0.1162 | 0.689 | – | – | –
x1 = 0.2283 | 0.732 | – | – | –
x1 = 0.3365 | 0.788 | – | – | –
x1 = 0.441 | 0.871 | – | – | –
x1 = 0.542 | 0.976 | – | – | –
x1 = 0.6397 | 1.109 | – | – | –
x1 = 0.7341 | 1.281 | – | – | –
x1 = 0.8256 | 1.478 | – | – | –
x1 = 0.9142 | 1.731 | – | – | –
x2 = 0.0814 | 1.757 | 1.589 | 1.445 | 1.321
x2 = 0.165 | 1.536 | 1.393 | 1.274 | 1.166
x2 = 0.2509 | 1.362 | 1.235 | 1.137 | 1.045
x2 = 0.3438 | 1.214 | 1.101 | 1.016 | 0.934
x2 = 0.4391 | 1.099 | 0.999 | 0.922 | 0.852
x2 = 0.5412 | 0.995 | 0.904 | 0.838 | 0.775
x2 = 0.6451 | 0.914 | 0.83 | 0.774 | 0.715
x2 = 0.7589 | 0.836 | 0.763 | 0.711 | 0.66
x2 = 0.8707 | 0.767 | 0.7 | 0.658 | 0.61

CCOCC + CCCO
101 kPa
Conditions | viscosity [mPa·s]
298.15 K, x1 = 0.09896 | 1.404
298.15 K, x1 = 0.1949 | 1.024
298.15 K, x1 = 0.3032 | 0.753
298.15 K, x1 = 0.4198 | 0.562
298.15 K, x1 = 0.5476 | 0.427
298.15 K, x1 = 0.6864 | 0.336
298.15 K, x1 = 0.8353 | 0.272
303.16 K, x1 = 0.07 | 1.682
303.16 K, x1 = 0.15 | 1.591
303.16 K, x1 = 0.25 | 1.417
303.16 K, x1 = 0.37 | 1.237
303.16 K, x1 = 0.47 | 0.8879
303.16 K, x1 = 0.59 | 0.6163
303.16 K, x1 = 0.73 | 0.4922
303.16 K, x1 = 0.78 | 0.3645
303.16 K, x1 = 0.92 | 0.2804

O=C1CCCCC1 + CCCO
303.15 K, 101 kPa
Conditions | viscosity [mPa·s]
x1 = 0.1012 | 1.452
x1 = 0.2601 | 1.283
x1 = 0.4199 | 1.243
x1 = 0.5794 | 1.3
x1 = 0.7393 | 1.392
x1 = 0.8997 | 1.576
